Converted amounts (≈) assume the structure as drawn. “And” between values parts separate entries of the source, which are not always exact repeats. Equal entries are not always repeated. Where two headings read alike, the source gives them in different places.
Tests used:
Human Chymotrypsin = test: Protease panel; format: biochemical
[1] = human
[2] = Intravenous pharmacokinetics; settings: rat, dog, monkey, in vivo, 2 mg/kg
SARS-CoV-2 [3] = settings: for Bliss Synergy Score / HSA Synergy Score / Loewe Synergy Score: with Remdesivir; for classification of the combination effect: with remdesivir
CYP3A4/5 = settings: microsomes
Human Cathepsin B = Human Cathepsin B (Homo sapiens, UniProt P07858); test: Protease panel; format: biochemical
[4] = Saturated solubility in co-solvent/co-solvent/water mixtures (F3); settings: 25 °C, pH 5, aqueous buffer, thermodynamic from solid, PF-00835321 Saturated Solubility, pH 5, 5 mM citrate, PEG400 0.75, Ethanol […] v/v
[5] = Plasma protein binding by equilibrium dialysis
[6] = 48 h
[7] = rat, dog, monkey, in vivo
[8] = Admixture physical stability in 0.9% w/v sodium chloride; settings: 25° C.
[9] = Assay over 7 days, 80 mg/mL SBE-β-CD with PEG400/ethanol (F10); settings: ~3:1 PEG400:ethanol (1.5-6.0% v/v), 2, 4, 6 and 8 mg/mL PF-00835231, ambient
[10] = Assay of CD/co-solvent/water formulations of different compositions over 5 days (F8); settings: all formulations of Formulation Table F11
[11] = pH 7.4
[12] = Physical stability on storage of the 6 mg/mL formulation (F11); format: physicochemical; settings: 80 mg/mL SBE-β-CD, […] v/v ethanol, 3.4% v/v PEG400, 6 mg/mL PF-00835231
Protocol: To further assess the robustness of formulations prepared in Formulation Example F10, a single formulation was selected to scale-up for use in a stability study.
An additional 20 mL solution of 300 mg/mL SBE-β-CD was similarly prepared.
14.29 mL of the citrate buffer and SBE-β-CD stock solution was then added to two separate 20 mL scintillation vials. […] The drug product solutions were mixed overnight and filtered through a 0.2 um PVDF filter. 0.5 mL aliquots of drug product solutions were then filled into 4 mL vials, stoppered, crimped, and placed in temperature-controlled chambers at −20° C., 4° C., and 25° C.
Furthermore, if the solutions were supersaturated at room temperature, exposure to refrigerated or frozen storage temperatures should induce precipitation and cause a decrease in assay. […] (top), 4° C. (center), and 25° C. (bottom). For each condition, data from two separate samples is plotted and is shown with a linear fit to the data.

[13] = tested on: BetaCov GHB-03021/2020 strain; test: microbe, parasite or virus in culture; format: cell-based, SARS-CoV-2; settings: Severe acute respiratory syndrome coronavirus 2
229E-CoV-2 3CLpro = 229E-CoV-2 3CLpro (Human coronavirus 229E, UniProt P0C6X1); test: FRET protease activity assay; format: biochemical; settings: Alpha-CoV; [E]T 118 ± 3 nM
SARS-CoV-2 [14] = test: Antiviral activity in HeLa-ACE2 cells (viral protein detection); format: cell-based; settings: Severe acute respiratory syndrome coronavirus 2, compound alone
[15] = Patient Sera 2, individual value, n 1
[16] = 2.5x dilution in 0.9% w/v sodium chloride
[17] = 10x dilution in 0.9% w/v sodium chloride

Sequence of 229E-CoV-2 3CLpro (P0C6X1 2966-3267): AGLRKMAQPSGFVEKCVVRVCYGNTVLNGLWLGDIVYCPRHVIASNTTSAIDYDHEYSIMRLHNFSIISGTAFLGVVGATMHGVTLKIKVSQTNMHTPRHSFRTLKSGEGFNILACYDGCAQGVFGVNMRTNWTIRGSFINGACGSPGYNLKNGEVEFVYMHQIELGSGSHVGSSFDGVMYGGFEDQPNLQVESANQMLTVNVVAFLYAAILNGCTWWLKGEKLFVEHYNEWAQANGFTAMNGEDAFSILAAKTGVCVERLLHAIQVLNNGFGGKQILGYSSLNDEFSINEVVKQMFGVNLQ

With `COc1cccc2[nH]c(C(=O)N[C@@H](CC(C)C)C(=O)N[C@@H](C[C@@H]3CCNC3=O)C(=O)CO)cc12` [PF-00835231] the IC50 (Human Chymotrypsin) was over 100000 nM, the predicted half-life [1] was “approximately 2 h” and the “predicted plasma clearance (CLp)” value [1] was about 6 mL/min/kg. For the same compound, the half-life [2] was under 1.5 h, the “cytotoxicity in virus infected host cells” value (SARS-CoV-2 [3]; all the combinations with remdesivir tested) was “no noticeable cytotoxicity” and the “Bliss Synergy Score” value (SARS-CoV-2 [3]; Patient Sera 1, average, n 2) was 1.60. For the same compound, the “HSA Synergy Score” value (SARS-CoV-2 [3]; Patient Sera 1, average, n 2) was 2.51, the “Loewe Synergy Score” value (SARS-CoV-2 [3]; Patient Sera 1, average, n 2) was 1.60 and the “Bliss Synergy Score” value (SARS-CoV-2 [3]; [15]) was “(0.366)”. The “HSA Synergy Score” value (SARS-CoV-2 [3]; [15]) was “(0.830)”, the “Loewe Synergy Score” value (SARS-CoV-2 [3]; [15]) was “(−0.0776)” and the “classification of the combination effect” value (SARS-CoV-2 [3]; patient #1 sera, 2 independent experiments) was “synergy”. For the same compound, the “classification of the combination effect” value (SARS-CoV-2 [3]; sera from patient #2, single experiment) was “additivity”, the “time dependent inhibition of CYP3A4/5” value (CYP3A4/5) was “weak signal” and the “Solid Form at 4° C.” value (pH 3) was “No Change-Hydrate”. The “Solid Form at 4° C.” value (pH 5) was “No Change-Hydrate”, the “Solid Form at 4° C.” value (pH 7) was “No Change-Hydrate” and the “margin of activity against human cathepsin B compared to 3CLpro” value (Human Cathepsin B) was 1000 fold. For the same compound, the solubility at 48 h [4] was 100 µg/mL (≈ 212 µM), the fraction unbound [5] was 0.26 to 0.46 and the “PF-00835321 Solubility” value [6] was over 45000 µg/mL. The “eliminated unchanged in the urine” value [7] was “approximately 10%”, the “Assay - 0 days” value [8, 16] was 2.3 mg/mL and 2.2 mg/mL and the “Assay - 3 days” value [8, 16] was 2.3 mg/mL and 2.2 mg/mL. For the same compound, the “Total Impurities - 0 days” value [8, 16] was 1.23 % peak area and 1.20 % peak area, the “Total Impurities - 3 days” value [8, 16] was 1.38 % peak area and 1.37 % peak area and the “Assay - 0 days” value [8, 17] was 0.6 mg/mL. The “Assay - 3 days” value [8, 17] was 0.6 mg/mL, the “Total Impurities - 0 days” value [8, 17] was 1.20 % peak area and the “Total Impurities - 3 days” value [8, 17] was 1.33 % peak area. The “Assay - 0 days” value ([8]; No dilution) was 5.8 mg/mL and 5.6 mg/mL, the “Assay - 3 days” value ([8]; No dilution) was 5.8 mg/mL and 5.7 mg/mL and the “Total Impurities - 0 days” value ([8]; No dilution) was 1.25 % peak area. The “Total Impurities - 3 days” value ([8]; No dilution) was 1.44 % peak area and 1.48 % peak area, the “assay values of filtered formulations over 7 days (FIG. 12)” value [9] was “do not change over 7 days” and the “appearance of solutions after 5 days mixing at 25° C.” value [10] was “remained clear”. The SFLogD7.4 [11] was 1.7, the “assay values on storage at 4° C. and 25° C. (FIG. 13)” value [12] was “consistent over the 30 day period tested” and the “assay values on storage at −20° C. (FIG. 13)” value [12] was “consistent over the 7 day period tested”. The EC90 [13] was 1600 nM, the Ki (229E-CoV-2 3CLpro) was 1.5 ± 0.8 nM and the EC50 (SARS-CoV-2 [14]) was 140 nM and 144 nM. The EC90 (SARS-CoV-2 [14]) was 400 nM and 398 nM.

Source: patent publication US20230157998A1, “Methods of Inhibiting SARS-CoV-2 Replication and Treating Corona Virus Disease 2019” (Pfizer Inc., priority 2020, published 2023)
